From ChEMBL document CHEMBL1155921, “Synthesis and biological evaluation of novel 1-O- and 14-O-derivatives of oridonin as potential anticancer drug candidates” (Bioorg Med Chem Lett, 2008)

Columns and labels:
H22 [1] = assay: Antitumor activity in mouse H22 cell xenografted mouse at 20 mg/kg/day, ip after 4 days; format: functional; conditions: 96 h, route intraperitoneal
HL-60 = assay: Cytotoxicity against human HL60 cells by MTT assay; format: functional, cell-based
B16 [2] = assay: Cytotoxicity against mouse B16 cells by MTT assay; format: functional, cell-based
[3] = Cytotoxicity against human BGC-7901 cells by MTT assay; format: functional, cell-based
A549 = assay: Cytotoxicity against human A549 cells by MTT assay; format: functional, cell-based
SW480 = assay: Cytotoxicity against human SW480 cells by MTT assay; format: functional, cell-based
B16 [4] = assay: Antitumor activity in mouse B16 cell xenografted mouse at 20 mg/kg/day, ip after 4 days; format: functional; conditions: 96 h, route intraperitoneal
Bel-7402 = assay: Cytotoxicity against human BEL-7402 cells by MTT assay; format: functional, cell-based
H22 [5] = assay: Antitumor activity in mouse H22 cell xenografted mouse at 20 mg/kg/day, iv after 4 days; conditions: 96 h, read-out: INH
B16 [6] = assay: Antitumor activity in mouse B16 cell xenografted mouse at 20 mg/kg/day, iv after 4 days; format: functional; conditions: B16, 96 h

Compound	inhibition in vivo at 20 mg/kg/day (H22 [1]) [%]	IC50 (HL-60) [µM]	IC50 (B16 [2]) [µM]	IC50 [3] [µM]	IC50 (A549) [µM]	IC50 (SW480) [µM]	inhibition in vivo at 20 mg/kg/day (B16 [4]) [%]	IC50 (Bel-7402; read-out: IC50) [µM]	inhibition in vivo at 20 mg/kg/day (H22 [5]) [%]	inhibition in vivo at 20 mg/kg/day (B16 [6]) [%]	IC50 (Bel-7402) [µM]
C=C1C(=O)[C@]23[C@H](OC(=O)C(Cc4ccccc4)NC(=O)/C=C/C(=O)O)[C@@H]1CC[C@H]2[C@@]12CO[C@]3(O)[C@@H](O)[C@@H]1C(C)(C)CCC2=O (stereo partly specified)	62.5	2.07	8.22	3.02	3.46	2.89	61.2	1			
C=C1C(=O)[C@]23[C@H](OC(=O)C(Cc4ccccc4)NC(=O)CCCCC(=O)O)[C@@H]1CC[C@H]2[C@@]12CO[C@]3(O)[C@@H](O)[C@@H]1C(C)(C)CCC2=O (stereo partly specified)		6.24	13.9	7.05	8.06	7.3		12.8			
C=C1C(=O)[C@]23[C@H](OC(=O)CNC(=O)CCC(=O)O)[C@@H]1CC[C@H]2[C@@]12CO[C@]3(O)[C@@H](O)[C@@H]1C(C)(C)CCC2=O		7.76	8.57	15.6	11.5	10.2		2.09			
C=C1C(=O)[C@]23[C@H](OC(=O)C(N)Cc4ccccc4)[C@@H]1CC[C@H]2[C@@]12CO[C@]3(O)[C@@H](O)[C@@H]1C(C)(C)CCC2=O (stereo partly specified)		27.5	10.2	10.5	22.2	15		29.6			
C=C1C(=O)[C@]23[C@H](OC(=O)CN)[C@@H]1CC[C@H]2[C@@]12CO[C@]3(O)[C@@H](O)[C@@H]1C(C)(C)CC[C@@H]2OC(C)=O		12.3	12.4	18.2	11	22.3		17.9			
C=C1C(=O)[C@]23[C@H](OC(=O)CNC(=O)c4ccccc4C(=O)O)[C@@H]1CC[C@H]2[C@@]12CO[C@]3(O)[C@@H](O)[C@@H]1C(C)(C)CC[C@@H]2OS(=O)(=O)CCC		13.8	17.6	20.9	22.7	25.4		39.1			
C=C1C(=O)[C@]23[C@H](OC(=O)CNC(=O)CCCCC(=O)O)[C@@H]1CC[C@H]2[C@@]12CO[C@]3(O)[C@@H](O)[C@@H]1C(C)(C)CC[C@@H]2OS(=O)(=O)CCC		9.5	13	15.3	14	11.2		24.8			
C=C1C(=O)[C@]23[C@H](OC(=O)CNC(=O)CCCCC(=O)O)[C@@H]1CC[C@H]2[C@@]12CO[C@]3(O)[C@@H](O)[C@@H]1C(C)(C)CCC2=O		8.65	16.4	15.1	7.47	10.2		13.8			
C=C1C(=O)[C@]23[C@H](OC(=O)C(Cc4ccccc4)NC(=O)CCC(=O)O)[C@@H]1CC[C@H]2[C@@]12CO[C@]3(O)[C@@H](O)[C@@H]1C(C)(C)CCC2=O (stereo partly specified)	59.1	2.31	14.8	5.96	17.1	12.9	56.6	6.5			
C=C1C(=O)[C@]23[C@H](OC(=O)CNC(=O)CCCCC(=O)O)[C@@H]1CC[C@H]2[C@@]12CO[C@]3(O)[C@@H](O)[C@@H]1C(C)(C)CC[C@@H]2OC(C)=O		5.3	12.5	13.2	10.5	10.7		8.26			
C=C1C(=O)[C@]23[C@H](OC(=O)CNC(=O)/C=C/C(=O)O)[C@@H]1CC[C@H]2[C@@]12CO[C@]3(O)[C@@H](O)[C@@H]1C(C)(C)CC[C@@H]2OS(=O)(=O)CCC		1.97	5.66	5.52	1.33	14.7		19.1			
C=C1C(=O)[C@]23[C@H](OC(=O)CNC(=O)/C=C/C(=O)O)[C@@H]1CC[C@H]2[C@@]12CO[C@]3(O)[C@@H](O)[C@@H]1C(C)(C)CC[C@@H]2OC(C)=O	64.9	0.84	0.93	2.78	2.6	2.6	69.9	1			
C=C1C(=O)[C@]23[C@H](OC(=O)CN)[C@@H]1CC[C@H]2[C@@]12CO[C@]3(O)[C@@H](O)[C@@H]1C(C)(C)CCC2=O		24.8	19.1	20.9	20.6	28.4		30.3			
C=C1C(=O)[C@]23[C@H](OC(=O)CN)[C@@H]1CC[C@H]2[C@@]12CO[C@]3(O)[C@@H](O)[C@@H]1C(C)(C)CC[C@@H]2OS(=O)(=O)CCC		19.8	21.7	15.9	16.3	24.7		20.2			
O=P1(N(CCCl)CCCl)NCCCO1 (stereo unspecified) [CYCLOPHOSPHAMIDE ANHYDROUS]									54.3		
O=c1[nH]cc(F)c(=O)[nH]1 [FLUOROURACIL]		21.4	8.73	16.4	10.8	13.2				73.5	14.4
C=C1C(=O)[C@]23[C@H](O)[C@H]1CC[C@H]2[C@@]12CO[C@]3(O)[C@@H](O)[C@@H]1C(C)(C)CC[C@@H]2O [ORIDONIN]	42.7	32.8	26.2	28.3	27.2	31.4	45.9	39.8			
